# In article PMC10426190 (Breast Cancer Research : BCR, 2023):
# Molecular target: T1, ERα Y537S mutant (Homo sapiens, UniProt P03372, Y537S)
# T1 construct: MCF-7 wild type and Y537S mutant cells were seeded; host or cells: MCF7 expressing ER Y537S
# T1 sequence (P03372 1-595 Y537S): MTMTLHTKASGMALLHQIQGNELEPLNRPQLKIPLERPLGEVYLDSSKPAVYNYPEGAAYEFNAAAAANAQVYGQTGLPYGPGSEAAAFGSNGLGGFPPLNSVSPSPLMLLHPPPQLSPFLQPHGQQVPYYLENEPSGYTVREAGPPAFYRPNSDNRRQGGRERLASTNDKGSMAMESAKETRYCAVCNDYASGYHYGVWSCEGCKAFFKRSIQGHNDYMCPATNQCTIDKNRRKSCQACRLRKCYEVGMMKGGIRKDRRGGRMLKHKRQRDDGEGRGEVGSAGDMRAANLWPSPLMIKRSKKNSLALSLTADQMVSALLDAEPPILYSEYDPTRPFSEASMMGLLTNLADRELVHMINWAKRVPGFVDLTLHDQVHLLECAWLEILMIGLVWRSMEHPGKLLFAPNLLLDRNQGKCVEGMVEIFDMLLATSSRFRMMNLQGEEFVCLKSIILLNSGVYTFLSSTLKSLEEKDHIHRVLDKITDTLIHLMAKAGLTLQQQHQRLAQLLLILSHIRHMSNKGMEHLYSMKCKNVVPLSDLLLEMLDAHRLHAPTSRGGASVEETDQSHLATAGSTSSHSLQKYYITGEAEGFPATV
# Assay: ERα degradation assay, In-Cell Western, MCF-7 Y537S
# Assay type: cell-based
# Conditions: 24 h
# Protocol: MCF-7 wild type and Y537S mutant cells were seeded at a density of 5000 cells per well into flat clear bottom tissue cultured-treated 384-well plates (Greiner) in culture media and after overnight incubation cells were treated with compounds for 24 h. Then plates were fixed with 4% formaldehyde, permeabilized with ice-cold methanol, and blocked with Odyssey Blocking Buffer (LI-COR). The fixed cells were incubated with rabbit anti- ERα antibody (CST#8644S) and mouse anti-GAPDH antibody (Abcam #ab8245), washed and stained with IRDye 800 Goat anti-Rabbit IgG (Licor#926-32211) and IRDye 680 Goat anti-Mouse IgG (Licor#926-68070). ERα levels were quantitated using Sapphire RGBNIR (Azure), the acumen eX3 imaging system. […] IC50 and Emax were analyzed with IDBS XLfit.
smiles,measurement,value
C[C@]12CC[C@@H]3c4ccc(O)cc4C[C@@H](CCCCCCCCC[S+]([O-])CCCC(F)(F)C(F)(F)F)[C@H]3[C@@H]1CC[C@@H]2O (some centres unmarked) [Fulvestrant],ERα degradation assay Dmax [% Ful.],87.09 % Ful.
same,ERα degradation assay Dmax [% Veh.],26.38 % Veh.
